Like-named read-outs stand apart in the source and are kept apart here.
Key:
[1] = Plasma concentration after a single oral dose of the anxiolytic fraction (HPLC); format: in vivo, ICR mice; conditions: oral 200 mg/kg anxiolytic fraction, immediately after administration and over 24 h
Protocol: Eleven groups of ten animals each were randomly formed. All animals were orally administered with 200 mg/kg of the active fraction. Animals were anaesthetized with ether, and blood samples were obtained from the retroorbital sinus with a heparinized capillary, each group was examined at different times (0, 5, 10, 15, 30, 60, 120, 240, 480, 720, and 1440 min) after the active fraction was administered. […] Then the plasma samples were frozen and lyophilized. The dry plasma was subsequently used to extract and measure the concentration of the flavonoids and biotransformation products.
(§1) Plasma dried pulverized samples were extracted with methanol (HPLC grade, Merck). The extracts were filtered with Teflon membrane dimensions 0.45 μm by 13 mm (Millex®-LCR); 20 μL of each filtered sample was injected into the HPLC equipment. The measurements were performed in a (Waters corporation, Milford, CT, USA) 2695 HPLC with a diode array detector (Waters 2996) and processed with the Empower Pro 1.0 software. A Chromolith Performance® RP-18e 100 × 4.6 mm (Merck KGaA, Darmstadt, Germany) was used. The mobile phase consisted of a mixture of acetonitrile and water with the proportion 55:45 and a flow rate of 1 mL/min. The concentrations of the flavonoids and the biotransformation products were obtained by comparison with a pre-built calibration curve at λ = 220 nm.
To evaluate the suitability of the assay for the pharmacokinetic studies, 200 mg/kg of the active fraction was orally administered to the animals. Ten animals were used in each group at different times (0, 5, 10, 15, 30, 60, 120, 240, 480, 720, and 1440 min). Pharmacokinetic calculations were performed using the observed data. All data was subsequently processed using the PKSolver add-in program for Microsoft Excel written in Visual Basic for Applications. All values obtained were expressed in mean ± standard deviation.

[2] = Stability of flavonoids and biotransformation products in mouse plasma under different handling conditions; format: in vitro ADME, mice
Protocol: as §1
[…] The investigation enclosed here expected manipulation conditions during all the sample storage and process periods, which included the stability data from the freeze/thaw, bench-top, autosampler, and long–term stability tests.
For all stability studies, fresh QC samples were evaluated by using a freshly prepared standard curve for the measurements. The concentrations obtained from all the stability studies were compared with the fresh QC samples, and the percentage concentration deviation was calculated. The analytes were considered stable in the mouse plasma when the concentration difference between the freshly prepared samples and the stability samples was less than 15%.

[3] = parameters: method as in PMID 11151743; conditions: glucoronides and sulphates of quercetin found in plasma; cited from earlier work
[4] = storage stability, high nominal conc.
[5] = storage stability, high nominal conc. (7.00; 44.37; 4.50; 31.25 µg/mL), n = 6
[6] = storage stability, low nominal conc.
[7] = storage stability, low nominal conc. (1.75; 11.02; 1.12; 1.95 µg/mL), n = 6
[8] = storage stability, medium nominal conc.

Structure (SMILES): C[C@@H]1O[C@@H](OC[C@H]2O[C@@H](Oc3c(-c4ccc(O)c(O)c4)oc4cc(O)cc(O)c4c3=O)[C@H](O)[C@@H](O)[C@@H]2O)[C@H](O)[C@H](O)[C@H]1O [Rutin, rutin]
- flavonoids found in the plasma after oral administration [1]: not found
- Observed Conc. 0 h [2]: 3.39 ± 0.16 µg/mL
- Observed Conc. 8 h [2]: 3.67 ± 0.30 µg/mL
- Observed Conc. 24 h [2]: 3.38 ± 0.27 µg/mL
- Observed Conc. Autosampler (4 °C; 8 h) [2]: 3.44 ± 0.15 µg/mL
- Observed Conc. Long-term (−70 °C; 1 month) [2]: 3.51 ± 0.28 µg/mL
- Accuracy Bias 0 h ([2]; room temperature (25 °C), 0 h, high nominal conc.): −1.99%
- Observed Conc. 0 h ([2]; room temperature (25 °C), 0 h, high nominal conc. (rutin 7.00; quercetin glucoside, quercitrin, tiliroside 44.37; kaempferol 4.50; m-HPAA, p-HPAA, DOPAC 31.25 µg/mL), n = 6): 7.27 ± 0.41 µg/mL
- Accuracy Bias 0 h ([2]; room temperature (25 °C), 0 h, low nominal conc.): 5.76%
- Observed Conc. 0 h ([2]; room temperature (25 °C), 0 h, low nominal conc. (rutin 1.75; quercetin glucoside, quercitrin, tiliroside 11.02; kaempferol 1.12; m-HPAA, p-HPAA, DOPAC 1.95 µg/mL), n = 6): 1.74 ± 0.11 µg/mL
- Accuracy Bias 0 h ([2]; room temperature (25 °C), 0 h, medium nominal conc.): 3.17%
- Accuracy Bias 8 h ([2]; room temperature (25 °C), 8 h, high nominal conc.): −2.45%
- Observed Conc. 8 h ([2]; room temperature (25 °C), 8 h, high nominal conc. (7.00; 44.37; 4.50; 31.25 µg/mL), n = 6): 7.17 ± 0.21 µg/mL
- Accuracy Bias 8 h ([2]; room temperature (25 °C), 8 h, low nominal conc.): 5.46%
- Observed Conc. 8 h ([2]; room temperature (25 °C), 8 h, low nominal conc. (1.75; 11.02; 1.12; 1.95 µg/mL), n = 6): 1.65 ± 0.10 µg/mL
- Accuracy Bias 8 h ([2]; room temperature (25 °C), 8 h, medium nominal conc.): −4.97%
- Accuracy Bias 24 h ([2]; room temperature (25 °C), 24 h, high nominal conc.): −3.93%
- Observed Conc. 24 h ([2]; room temperature (25 °C), 24 h, high nominal conc. (7.00; 44.37; 4.50; 31.25 µg/mL), n = 6): 7.13 ± 0.24 µg/mL
- Accuracy Bias 24 h ([2]; room temperature (25 °C), 24 h, low nominal conc.): 0.33%
- Observed Conc. 24 h ([2]; room temperature (25 °C), 24 h, low nominal conc. (1.75; 11.02; 1.12; 1.95 µg/mL), n = 6): 1.64 ± 0.10 µg/mL
- Accuracy Bias 24 h ([2]; room temperature (25 °C), 24 h, medium nominal conc.): 2.93%
- Accuracy Bias Autosampler (4 °C; 8 h) [2, 4]: −1.17%
- Accuracy Bias Long-term (−70°C; 1 month) [2, 4]: −1.56%
- Observed Conc. Autosampler (4 °C; 8 h) [2, 5]: 7.08 ± 0.34 µg/mL
- Observed Conc. Long-term (−70 °C; 1 month) [2, 5]: 7.10 ± 0.38 µg/mL
- Accuracy Bias Autosampler (4 °C; 8 h) [2, 6]: −6.41%
- Accuracy Bias Long-term (−70°C; 1 month) [2, 6]: 2.92%
- Observed Conc. Autosampler (4 °C; 8 h) [2, 7]: 1.86 ± 0.19 µg/mL
- Observed Conc. Long-term (−70 °C; 1 month) [2, 7]: 1.69 ± 0.12 µg/mL
- Accuracy Bias Autosampler (4 °C; 8 h) [2, 8]: 1.58%
- Accuracy Bias Long-term (−70°C; 1 month) [2, 8]: −0.45%
- absorption into the vascular space after oral administration [3]: not absorbed
